# Measurements from patent publication US20140107109A1, “AMINO-DIHYDROTHIAZINE AND AMINO-DIOXIDO DIHYDROTHIAZINE COMPOUNDS AS BETA-SECRETASE ANTAGONISTS AND METHODS OF USE” (Amgen Inc., priority 2012, published 2014).
# pIC50: −log10 of the molar value. Where two headings read alike, the source gives them in different places.
# Columns and labels:
# Cathepsin D (Cat D) = target: T1, Cathepsin D (Cat D) (Homo sapiens, UniProt P07339); experiment: In vitro enzymatic Cathepsin D (Cat D) FRET assay; type: biochemical
# T1 construct: Recombinant Cat D was expressed in CHO cells; made in house; host or cells: CHO cells
# Procedure, shortened: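 FRET read-out: a fluorophore/quencher-labelled peptide substrate is cleaved by 9 nM Cat D (recombinant, CHO-expressed) following a one-hour preincubation with inhibitor dilutions in DMSO. Tris buffer added to neutralize pH ends the reaction before fluorescence measurement.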
# [1] = system: Aβ40 in conditioned medium of cells stably expressing Amyloid Precursor Protein (APP); experiment: In vitro BACE cell-based assay (HEK cell assay), Aβ40 sandwich ELISA; settings: Homo sapiens, HEK293
# Procedure, shortened: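 Aβ40 in conditioned medium was quantified by time-resolved fluorescence sandwich ELISA (pAb40 capture 3 h at 4 °C, biotin-6E10 detection 2 h at 4 °C) after 24 h compound exposure of APP-expressing cells. Doses spanned 10 points from 100 μM or 10 μM top, 0.1% DMSO; IC50 was derived from percent of control.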
# [2] = target: Beta Secretase enzyme (BACE1) (Homo sapiens, UniProt P56817); experiment: In vitro enzymatic BACE FRET assay; type: biochemical; settings: read-out: BACE1 FRET assay IC50
# Procedure, shortened: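 Readout: dequenched fluorescence (ex 488 nm/[…]) after neutralizing with Tris buffer. Reactions, begun by adding 50 nM quenched peptide substrate spanning the BACE cleavage site, were incubated one hour at pH 4.2 in 0.05 M acetate with 100 uM genapol and 10% final DMSO.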
# T1 sequence (P07339 65-412, species assumed): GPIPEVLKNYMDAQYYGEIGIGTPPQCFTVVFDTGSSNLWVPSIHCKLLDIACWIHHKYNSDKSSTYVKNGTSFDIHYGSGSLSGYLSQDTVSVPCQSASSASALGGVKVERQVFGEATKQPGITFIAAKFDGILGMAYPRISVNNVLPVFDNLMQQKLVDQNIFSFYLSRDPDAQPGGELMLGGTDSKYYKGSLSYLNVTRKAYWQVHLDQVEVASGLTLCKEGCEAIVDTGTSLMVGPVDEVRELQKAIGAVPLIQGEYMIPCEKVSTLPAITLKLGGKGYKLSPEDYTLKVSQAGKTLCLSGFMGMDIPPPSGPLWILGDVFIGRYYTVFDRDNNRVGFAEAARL
# Chain of Beta Secretase enzyme (BACE1) (P56817 46-501): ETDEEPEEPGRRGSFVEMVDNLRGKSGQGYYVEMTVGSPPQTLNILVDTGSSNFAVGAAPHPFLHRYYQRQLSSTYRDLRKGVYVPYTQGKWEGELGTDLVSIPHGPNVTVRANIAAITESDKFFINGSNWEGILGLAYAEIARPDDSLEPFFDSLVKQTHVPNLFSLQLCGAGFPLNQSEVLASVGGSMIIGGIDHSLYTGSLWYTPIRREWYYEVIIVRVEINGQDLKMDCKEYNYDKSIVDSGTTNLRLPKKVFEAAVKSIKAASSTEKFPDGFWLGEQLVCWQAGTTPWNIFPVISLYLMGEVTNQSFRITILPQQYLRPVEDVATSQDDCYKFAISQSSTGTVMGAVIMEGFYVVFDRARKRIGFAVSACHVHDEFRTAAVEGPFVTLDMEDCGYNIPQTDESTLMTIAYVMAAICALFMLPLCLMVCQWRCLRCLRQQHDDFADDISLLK
pIC50 (Cathepsin D (Cat D); read-out: CatD IC50),"pIC50 ([2]; average IC50, enzyme assay)",pIC50 [2],"pIC50 ([1]; average IC50, cell assay)",Structure (SMILES),other results
3.96,7.74,–,–,"CC1[C@@](C)(c2cc(NC(=O)c3ccc(Cl)cn3)ccc2F)N=C(N)[C@](C)(F)S1(=O)=O (stereo partly drawn) [Example 339, N-(3-((3R,6R)-5-amino-6-fluoro-2,3,6-trimethyl-1,1-dioxido-3,6-dihydro-2H-1,4-thiazin-3-yl)-4-fluorophenyl)-5-chloro-2-pyridinecarboxamide]","pIC50 ([1]; average IC50, HEK cell assay): 6.71"
3.52,–,8.01,–,"CC1(C)C(N)=N[C@](CF)(c2cc(NC(=O)c3cn4cc(Cl)ccc4n3)ccc2F)CS1(=O)=O [Example 391, N-(3-((3S)-5-amino-3-(fluoromethyl)-6,6-dimethyl-1,1-dioxido-3,6-dihydro-2H-1,4-thiazin-3-yl)-4-fluorophenyl)-6-chloroimidazo[1,2-a]pyridine-2-carboxamide]",pIC50 [1]: 7.44
3.07,9.30,–,–,"CC1(C)C(N)=N[C@](CF)(c2cc(NC(=O)c3cnc(OCC(F)F)cn3)ccc2F)CS1(=O)=O [Example 364, N-(3-((3S)-5-amino-3-(fluoromethyl)-6,6-dimethyl-1,1-dioxido-3,6-dihydro-2H-1,4-thiazin-3-yl)-4-fluorophenyl)-5-(2,2-difluoroethoxy)-2-pyrazinecarboxamide]","pIC50 ([1]; average IC50, HEK cell assay): 7.67"
3.47,–,8.52,–,"COc1cnc(C(=O)Nc2ccc(F)c([C@]3(CF)CS(=O)(=O)C(C)(C)C(N)=N3)c2)c(C)c1 [Example 377, N-(3-((3S)-5-amino-3-(fluoromethyl)-6,6-dimethyl-1,1-dioxido-3,6-dihydro-2H-1,4-thiazin-3-yl)-4-fluorophenyl)-5-methoxy-3-methyl-2-pyridinecarboxamide]",pIC50 [1]: 8.01
3.42,–,8.31,–,"Cc1c(C(=O)Nc2ccc(F)c([C@]3(CF)CS(=O)(=O)C(C)(C)C(N)=N3)c2)nc2ccc(C#N)cn12 [Example 390, N-(3-((3S)-5-amino-3-(fluoromethyl)-6,6-dimethyl-1,1-dioxido-3,6-dihydro-2H-1,4-thiazin-3-yl)-4-fluorophenyl)-6-cyano-3-methylimidazo[1,2-a]pyridine-2-carboxamide]",pIC50 [1]: 7.63
3.30,–,–,–,"COCc1cc(Cl)cnc1C(=O)Nc1ccc(F)c([C@]2(CF)CS(=O)(=O)C(C)(C)C(N)=N2)c1 [Example 458, N-(3-((3S)-5-amino-3-(fluoromethyl)-6,6-dimethyl-1,1-dioxido-3,6-dihydro-2H-1,4-thiazin-3-yl)-4-fluorophenyl)-5-chloro-3-(methoxymethyl)-2-pyridinecarboxamide]","pIC50 ([1]; average IC50, HEK cells): 7.62; pIC50 ([2]; average IC50): 9.05"
< 3.40,–,8.12,–,"COc1cnc(C(=O)Nc2ccc(F)c([C@]3(C)CS(=O)(=O)C(C)C(N)=N3)c2)cn1 (stereo partly drawn) [Example 82, N-(3-((3R)-5-Amino-3,6-dimethyl-1,1-dioxido-3,6-dihydro-2H-1,4-thiazin-3-yl)-4-fluorophenyl)-5-methoxypyrazine-2-carboxamide]","pIC50 ([1]; Aβ40, 24 h incubation): 7.90"
3.58,–,9.52,–,"Cc1cc(Cl)cnc1C(=O)Nc1ccc(F)c([C@]2(C)CS(=O)(=O)C(C)(C)C(N)=N2)c1 [Example 25, N-(3-((3R)-5-amino-3,6,6-trimethyl-1,1-dioxido-3,6-dihydro-2H-1,4-thiazin-3-yl)-4-fluorophenyl)-5-chloro-3-methyl-2-pyridinecarboxamide]","pIC50 ([1]; Aβ40, 24 h incubation): 8.49"
3.71,–,8.61,–,"COc1cnc(C(=O)Nc2ccc(F)c([C@]3(CF)CS(=O)(=O)C4(CCC4)C(N)=N3)c2)c(C)c1 [Example 373, N-(3-((7S)-9-amino-7-(fluoromethyl)-5,5-dioxido-5-thia-8-azaspiro[3.5]non-8-en-7-yl)-4-fluorophenyl)-5-methoxy-3-methyl-2-pyridinecarboxamide]",pIC50 [1]: 7.83
3.27,8.85,–,–,"COc1cnc(C(=O)Nc2ccc(F)c([C@@]3(C)N=C(N)C(C)(C)S(=O)(=O)C3F)c2)c(Cl)c1 (stereo partly drawn) [Example 336, N-(3-((3R)-5-amino-2-fluoro-3,6,6-trimethyl-1,1-dioxido-3,6-dihydro-2H-1,4-thiazin-3-yl)-4-fluorophenyl)-3-chloro-5-methoxy-2-pyridinecarboxamide]","pIC50 ([1]; average IC50, HEK cell assay): 8.28"

# Second part, the compound before the results:
Structure (SMILES),pIC50 (Cathepsin D (Cat D); read-out: CatD IC50),"pIC50 ([2]; average IC50, enzyme assay)",pIC50 [2],"pIC50 ([1]; average IC50, cell assay)",other results
"CC#CCOc1cnc2c(Nc3ccc(F)c([C@]4(C)CS(=O)(=O)C(C)(C)C(N)=N4)c3)nccc2n1 [Example 445, N-(3-((3R)-5-amino-3,6,6-trimethyl-1,1-dioxido-3,6-dihydro-2H-1,4-thiazin-3-yl)-4-fluorophenyl)-2-(2-butyn-1-yloxy)pyrido[3,4-b]pyrazin-5-amine]",3.75,9.49,–,9.70,–
"CC#CCOc1cnc2c(Nc3ccc(F)c([C@]4(C)CS(=O)(=O)C(C)(C)C(N)=N4)c3)nccc2c1 [Example 254, N-(3-((3R)-5-amino-3,6,6-trimethyl-1,1-dioxido-3,6-dihydro-2H-1,4-thiazin-3-yl)-4-fluorophenyl)-3-(2-butyn-1-yloxy)-1,7-naphthyridin-8-amine]",3.45,9.22,–,9.22,–
"CC#CCOc1cnc(C(=O)Nc2ccc(F)c([C@]3(C)CS(=O)(=O)C(C)(C)C(N)=N3)c2)cn1 [Example 26, N-(3-((3R)-5-amino-3,6,6-trimethyl-1,1-dioxido-3,6-dihydro-2H-1,4-thiazin-3-yl)-4-fluorophenyl)-5-(2-butyn-1-yloxy)-2-pyrazinecarboxamide]",3.32,–,9.40,–,"pIC50 ([1]; Aβ40, 24 h incubation): 10.30"
"CC1(C)C(N)=N[C@](C)(c2cc(NC(=O)c3cnc(OC(F)F)cn3)ccc2F)CS1(=O)=O [Example 344, N-(3-((3R)-5-amino-3,6,6-trimethyl-1,1-dioxido-3,6-dihydro-2H-1,4-thiazin-3-yl)-4-fluorophenyl)-5-(difluoromethoxy)-2-pyrazinecarboxamide]",3.41,9.28,–,–,"pIC50 ([1]; average IC50, HEK cell assay): 9.40"
"CC1(C)C(N)=N[C@](C)(c2cc(Oc3cnccn3)ccc2F)CS1(=O)=O [Example 270, (5R)-5-(2-fluoro-5-(2-pyrazinyloxy)phenyl)-2,2,5-trimethyl-5,6-dihydro-2H-1,4-thiazin-3-amine 1,1-dioxide]",3.65,7.03,–,7.29,–
"Cc1nc(F)c([C@]2(C)CS(=O)(=O)C(C)(C)C(N)=N2)cc1Br [Example 184, (R)-5-Amino-3-(5-bromo-2-fluoro-6-methylpyridin-3-yl)-3,6,6-trimethyl-3,6-dihydro-2H-1,4-thiazine 1,1-dioxide]",–,5.09,–,5.40,pIC50 (Cathepsin D (Cat D)): 3.90
"CC1(C)C(N)=N[C@](C)(c2cc(Oc3cc(-c4ccc(Cl)cn4)ccn3)ccc2F)CS1(=O)=O [Example 281, (5R)-5-(5-((5-chloro-2,4′-bipyridin-2′-yl)oxy)-2-fluorophenyl)-2,2,5-trimethyl-5,6-dihydro-2H-1,4-thiazin-3-amine 1,1-dioxide]",4.21,6.09,–,5.95,–
"CC1(C)C(N)=N[C@](C)(c2cc(Nc3nccc4cc(Cl)cnc34)cc(F)c2F)CS1(=O)=O (single isomer, unassigned) [Example 70]",3.79,–,6.08,–,"pIC50 ([1]; Aβ40, 24 h incubation): 5.30"
"COc1cnc2c(Nc3ccc(F)c([C@@]4(C)N=C(N)C(C)(C)S(=O)(=O)[C@@H]4F)c3)nccc2c1 [Example 44, (2S,3R)-5-Amino-2-fluoro-3-(2-fluoro-5-((3-methoxy-1,7-naphthyridin-8-yl)amino)phenyl)-3,6,6-trimethyl-3,6-dihydro-2H-1,4-thiazine 1,1-dioxide]",3.45,–,8.00,–,"pIC50 ([1]; Aβ40, 24 h incubation): 7.22"
"Cc1cc(OC(F)F)cnc1C(=O)Nc1ccc(F)c([C@]2(C)CS(=O)(=O)C(C)(C)C(N)=N2)c1 [Example 144, (R)—N-(3-(5-amino-3,6,6-trimethyl-1,1-dioxido-3,6-dihydro-2H-1,4-thiazin-3-yl)-4-fluorophenyl)-5-(difluoromethoxy)-3-methylpicolinamide]",4.01,–,9.22,–,pIC50 [1]: 8.80
"CC1(C)C(N)=N[C@](C)(c2cc(Nc3ncc(F)c4cc(Cl)cnc34)cnc2F)CS1(=O)=O [Example 220, N-(5-((3R)-5-amino-3,6,6-trimethyl-1,1-dioxido-3,6-dihydro-2H-1,4-thiazin-3-yl)-6-fluoro-3-pyridinyl)-3-chloro-5-fluoro-1,7-naphthyridin-8-amine]",4.82,> 8.70,–,8.48,–
"C[C@]1(c2cc(Nc3nccc4cc(C#N)cnc34)ccc2F)N=C(N)C2(CCC2)S(=O)(=O)C1F (stereo partly drawn) [Example 251, 8-((3-((7R)-9-amino-6-fluoro-7-methyl-5,5-dioxido-5-thia-8-azaspiro[3.5]non-8-en-7-yl)-4-fluorophenyl)amino)-1,7-naphthyridine-3-carbonitrile]",4.37,9.24,–,7.87,–
"CCc1cc(Oc2ccc(F)c([C@]3(C)CS(=O)(=O)C(C)(C)C(N)=N3)c2)ccc1Cl [Example 100, (R)-5-amino-3-(5-(4-chloro-3-ethylphenoxy)-2-fluorophenyl)-3,6,6-trimethyl-3,6-dihydro-2H-1,4-thiazine 1,1-dioxide]",4.75,–,5.81,–,"pIC50 ([1]; Aβ40, 24 h incubation): < 5.00"
